This passage reports solubility results from US20080255193A1, “Pharmaceutical Composition” (priority 2005, published 2008).

In brackets after ≈: the same amount, converted by molar mass.

The data set is described as follows: Aqueous solubility of talnetant. The data set is classed as physicochemical. Conditions: aqueous medium. How it is done:
Talnetant has low aqueous solubility (approximately 0.03 mg/ml at pH 1 and 0.001 mg/ml, at pH 7.0). Typically drugs with low aqueous solubility are absorbed slowly across the walls of the gastrointestinal tract (GIT) due to poor dissolution of the solid in the GIT leading to a small diffusive driving force.

Regarding `CC[C@H](NC(=O)c1c(O)c(-c2ccccc2)nc2ccccc12)c1ccccc1` [Talnetant, (S)-(−)-N-(α-ethylbenzyl)-3-hydroxy-2-phenylquinoline-4-carboxamide], the solubility is, setting by setting: (aqueous buffer, pH 7.0) around 1 µg/mL (≈ 2.61 µM); (pH 1, simulated gastric fluid) around 30 µg/mL (≈ 78.4 µM).
